The values that follow are results of earlier work, collected in patent publication US4933274A, “Process for detecting genetic susceptibility to cancer” (United States of America Represented by the Secretary of …, priority 1988, dated 1990).

The test system of one data set is x-irradiated XP-A cells. To be noted: ara-C added to x-irradiated XP-A (xeroderma pigmentosum group A) cells.
In the next data set the test system is normal cells. Particulars: ara-C 50 μM added to normal cells following irradiation.

Consider `Nc1ccn([C@@H]2O[C@H](CO)[C@@H](O)[C@@H]2O)c(=O)n1` [ara-C, β-cytosine arabinoside], for which the chromatid damage result in the data set on x-irradiated XP-A cells is “no effect on chromatid damage”. Moreover, in the data set with normal cells, the “frequency of chromatid damage” value is reported as “enhances the frequency of chromatid damage to the level observed in the irradiated cancer-prone cells”.
